Data reported in the NIST ThermoML archive (doi:10.1021/je0255980).
Values joined by “and” are separate entries in the source; they are usually repeats but may differ in a detail not shown here. Equal values may be shown once. ± gives the expanded uncertainty stated by the source.

Details: Liquid

CCCOC(C)(C)CC(C)(C)C [pentane, 2-propoxy-2,4,4-trimethyl-]
Details | vapor or sublimation pressure [kPa]
274.3 K | 0.0336 ± 0.0026
277.3 K | 0.0443 ± 0.0035
278.2 K | 0.0491 ± 0.0038
280.2 K | 0.058 ± 0.0045
283.4 K | 0.07 ± 0.0055
286.2 K | 0.0913 ± 0.0071
289.3 K | 0.1179 ± 0.0092
292.3 K | 0.1404 ± 0.011
294.4 K | 0.1616 ± 0.013
296.3 K | 0.1858 ± 0.015
297.4 K | 0.2008 ± 0.016
297.8 K | 0.2103 ± 0.016
298.3 K | 0.2196 ± 0.017
299.3 K | 0.2293 ± 0.018
300.3 K | 0.2411 ± 0.019
301.2 K | 0.2557 ± 0.02
302.2 K | 0.2825 ± 0.022
303.2 K | 0.2956 ± 0.023
304.3 K | 0.3231 ± 0.025
305.2 K | 0.3294 ± 0.026
306.2 K | 0.3595 ± 0.028
307.2 K | 0.382 ± 0.03
308.2 K | 0.3898 ± 0.03

CCCCOC(C)(C)CC [butyl 1,1-dimethylpropyl ether]
Details | vapor or sublimation pressure
274.2 K | 0.1111 ± 0.0086 kPa
276.2 K | 0.1278 ± 0.01 kPa
278.2 K | 0.1602 ± 0.013 kPa and 0.1508 ± 0.012 kPa
281.3 K | 0.1842 ± 0.014 kPa
283.2 K | 0.2344 ± 0.018 kPa and 0.2179 ± 0.017 kPa
285.2 K | 0.2509 ± 0.019 kPa
286.2 K | 0.2632 ± 0.021 kPa
288.2 K | 0.3232 ± 0.025 kPa
290.2 K | 0.3551 ± 0.028 kPa
293.2 K | 0.4784 ± 0.037 kPa and 0.4372 ± 0.034 kPa
296.2 K | 0.5522 ± 0.043 kPa
298.2 K | 0.6658 ± 0.052 kPa and 0.6132 ± 0.048 kPa
301.2 K | 0.7443 ± 0.058 kPa
303.2 K | 0.901 ± 0.07 kPa
304.2 K | 0.9012 ± 0.07 kPa
308.2 K | 1.199 ± 0.093 kPa

CCCCCOC(C)(C)CC(C)(C)C [pentane, 2-pentoxy-2,4,4-trimethyl-]
Details | vapor or sublimation pressure [kPa]
277.5 K | 0.0037 ± 0.0003
279.5 K | 0.0044 ± 0.0003
281.5 K | 0.0052 ± 0.0004
283.5 K | 0.0062 ± 0.0005
285.6 K | 0.0073 ± 0.0006
288.6 K | 0.0095 ± 0.0007
291.6 K | 0.0124 ± 0.001
294.7 K | 0.0155 ± 0.0012
297.7 K | 0.0194 ± 0.0015
300.7 K | 0.0247 ± 0.0019
303.2 K | 0.03 ± 0.0023

CCCCCCOC(C)(C)CC(C)(C)C [pentane, 2-hexoxy-2,4,4-trimethyl-]
Details | vapor or sublimation pressure [kPa]
295.8 K | 0.0053 ± 0.0004
298.8 K | 0.0069 ± 0.0005
301.9 K | 0.0086 ± 0.0007
304.9 K | 0.0111 ± 0.0009
308 K | 0.0141 ± 0.0011
311 K | 0.0162 ± 0.0013
314.1 K | 0.0215 ± 0.0017
317.1 K | 0.0255 ± 0.002
320.1 K | 0.0321 ± 0.0025
323.1 K | 0.0406 ± 0.0032
326.2 K | 0.0502 ± 0.0039

COC(C)(C)CC(C)(C)C [methyl 1,1,3,3-tetramethylbutyl ether]
Details | vapor or sublimation pressure [kPa]
276.2 K | 0.1656 ± 0.013
277.3 K | 0.1859 ± 0.015
278.3 K | 0.1958 ± 0.015
280.3 K | 0.2383 ± 0.018
283.2 K | 0.2818 ± 0.022
283.3 K | 0.2759 ± 0.021
286.3 K | 0.356 ± 0.028
288.1 K | 0.3919 ± 0.03
289.3 K | 0.4126 ± 0.032
292.3 K | 0.5102 ± 0.04
293.3 K | 0.5636 ± 0.044
295.2 K | 0.6069 ± 0.047
298 K | 0.7478 ± 0.058
298.2 K | 0.7352 ± 0.057
301.2 K | 0.8887 ± 0.069
303.2 K | 1.022 ± 0.079
304.2 K | 1.07 ± 0.083
308 K | 1.339 ± 0.1

CCOC(C)(C)CC(C)(C)C [ethyl 1,1,3,3-tetramethylbutyl ether]
Details | vapor or sublimation pressure [kPa]
274.3 K | 0.0913 ± 0.0071
277.2 K | 0.1201 ± 0.0093
280.1 K | 0.1414 ± 0.011
283.2 K | 0.1829 ± 0.014
286.1 K | 0.2218 ± 0.017
289.2 K | 0.2772 ± 0.022
292.2 K | 0.339 ± 0.026
295.2 K | 0.4146 ± 0.032
298.2 K | 0.5117 ± 0.04
301.2 K | 0.6018 ± 0.047

CC(C)COC(C)(C)C [isobutyl tert-butyl ether]
Details | vapor or sublimation pressure [kPa]
273.3 K | 0.6788 ± 0.053
275.4 K | 0.7463 ± 0.058
276.4 K | 0.7981 ± 0.062
278.5 K | 0.9 ± 0.07
278.6 K | 0.938 ± 0.073
280.4 K | 0.9803 ± 0.076
282.5 K | 1.207 ± 0.094
283.5 K | 1.362 ± 0.11
284.6 K | 1.398 ± 0.11
287.6 K | 1.664 ± 0.13
288.4 K | 1.769 ± 0.14
290.6 K | 1.996 ± 0.15
293.4 K | 2.354 ± 0.18
293.6 K | 2.439 ± 0.19
295.6 K | 2.686 ± 0.21
298.4 K | 3.187 ± 0.25
298.7 K | 3.146 ± 0.24
301.8 K | 3.723 ± 0.29
303.4 K | 4.026 ± 0.31
304.8 K | 4.451 ± 0.35
308.4 K | 5.224 ± 0.41

CCCCOC(C)(C)CC(C)(C)C [butyl 1,1,3,3-tetramethylbutyl ether]
Details | vapor or sublimation pressure [kPa]
278.3 K | 0.0128 ± 0.001
281.3 K | 0.0165 ± 0.0013
284.3 K | 0.0206 ± 0.0016
287.3 K | 0.0269 ± 0.0021
290.3 K | 0.0324 ± 0.0025
293.3 K | 0.0413 ± 0.0032
296.3 K | 0.053 ± 0.0041
299.2 K | 0.0654 ± 0.0051
302.2 K | 0.0797 ± 0.0062
305.2 K | 0.1003 ± 0.0078
308.2 K | 0.1155 ± 0.009
311.2 K | 0.1474 ± 0.011
314.2 K | 0.1741 ± 0.013

CCC(C)(C)OC [2-methoxy-2-methylbutane]
Details | vapor or sublimation pressure [kPa]
274.2 K | 2.693 ± 0.21
276.2 K | 2.998 ± 0.23
278.2 K | 3.315 ± 0.26
280.2 K | 3.8 ± 0.3
282.8 K | 4.422 ± 0.34
283.8 K | 4.678 ± 0.36
287.8 K | 5.69 ± 0.44
292.9 K | 7.603 ± 0.59
297.8 K | 9.142 ± 0.71
302.8 K | 12.31 ± 0.96
307.8 K | 14.55 ± 1.1

CCCOC(C)(C)CC [1,1-dimethylpropyl propyl ether]
Details | vapor or sublimation pressure [kPa]
274.2 K | 0.4002 ± 0.031
276.2 K | 0.4448 ± 0.035
278.1 K | 0.5329 ± 0.042
280.2 K | 0.6121 ± 0.048
282.2 K | 0.7161 ± 0.056
284.2 K | 0.7938 ± 0.062
285.1 K | 0.8034 ± 0.063
287.3 K | 0.9974 ± 0.078
290.3 K | 1.199 ± 0.093
293.3 K | 1.434 ± 0.11
296.2 K | 1.799 ± 0.14
299.2 K | 2.072 ± 0.16
302.2 K | 2.332 ± 0.18

CCOC(C)(C)CC [1,1-dimethylpropyl ethyl ether]
Details | vapor or sublimation pressure [kPa]
274.2 K | 1.413 ± 0.11
276.2 K | 1.614 ± 0.13
278.2 K | 1.821 ± 0.14
280.2 K | 2.055 ± 0.16
282.2 K | 2.341 ± 0.18
284.2 K | 2.67 ± 0.21
287.2 K | 3.214 ± 0.25
290.2 K | 3.744 ± 0.29
293.2 K | 4.439 ± 0.34
296.2 K | 5.272 ± 0.41
299.2 K | 6.128 ± 0.48
302.2 K | 7.186 ± 0.56
